Here are results for two substances from US20150045410A1, “METHOD OF REGULATING CFTR EXPRESSION AND PROCESSING” (University of Iowa Research Foundation, priority 2012, published 2015).

The test system of one data set is HA-tagged wild-type CFTR. The experiment in a line: Cell surface ELISA (anti-HA) in HeLa cells stably expressing HA-tagged wild-type CFTR. The data set is classed as cell-based. The following applies: wild-type CFTR-3HA under CMV promoter, 6, 12, 24 hrs post-transfection. An excerpt: Hela cells stably expressing wild-type CFTR or CFTR-ΔF508 were kindly provided by Dr. G. Lukacs (Sharma, M., Benharouga, M., Hu, W. & Lukacs, G. L. Conformational and temperature-sensitive stability defects of the delta F508 cystic fibrosis transmembrane conductance regulator in post-endoplasmic reticulum compartments. J Biol. Chem. 276, 8942-8950, (2001); Sharma, M. et al. Misfolding diverts CFTR from recycling to degradation: quality control at early endosomes. J Cell Biol. 164, 923-933 (2004)). Cell surface ELISA was performed on these cells (Okiyoneda, T. et al. Peripheral protein quality control removes unfolded CFTR from the plasma membrane. Science 329, 805-810 (2010)) 6 hrs, 12 hrs, and 24 hrs after transfecting with oligonucleotides. HeLa cells were transfected in 96 well plates (Costar) with the SIN3A DsiRNA and miR-138 mimic as described earlier using the Lipofectamine™ RNAiMAX (Invitrogen) recommended reverse transfection protocol. Briefly, the plate containing the cells was moved to a cold room (4° C.), and all media used was ice cold. […] The reaction was stopped and read on a VersaMax™ Microplate Reader (Molecular Devices) at 540 nm using the SoftMax® Prof Software (Molecular Devices). For normalization, cells were lysed and total protein quantitated using the BCA Protein Assay kit (Pierce). […] Statistical significance between groups was determined using Student's t-test.
On the technique in general: In an ELISA, binding on a coated surface is turned into a signal by an enzyme label.

For another data set, the system named is CFTR. As to the kind of experiment: Transepithelial conductance and current (Ussing chamber) in primary human airway epithelia. The data set is classed as cell-based. As to the method: Airway epithelia from human trachea and primary bronchus removed from organs donated for research were cultured at the air-liquid interface (ALI) (Karp, P. H. et al. An in vitro model of differentiated human airway epithelia. Methods for establishing primary cultures. Methods Mol. Biol. 188, 115-137 (2002)). These studies were approved by the Institutional Review Board of the University of Iowa. Briefly, airway epithelial cells were dissociated from native tissue by pronase enzyme digestion. Permeable membrane inserts (0.6 cm^2 Millipore-PCF, 0.33 cm^2 Costar-Polyester) pre-coated with human placental collagen (IV, Sigma) were seeded with freshly dissociated epithelia. Seeding culture media used was DMEM/F-12 medium supplemented with 5% FBS, 50 units/mL penicillin, 50 μg/mL streptomycin, 50 μg/mL gentamicin, 2 μg/mL fluconazole, and 1.25 μg/mL amphotericin B. For epithelia from cystic fibrosis (CF) patients, the following additional antibiotics were used for the first 5 days: 77 μg/mL ceftazidime, 12.5 μg/mL imipenem and cilastatin, 80 μg/mL tobramycin, 25 μg/mL piperacillin and tazobactam, 20 μg/mL sulfamethoxazole, and 4 μg/mL trimethoprim. After seeding, the cultures were maintained in DMEM/F-12 medium supplemented with 2% Ultroser G (USG, Pall Biosepra) and the above listed antibiotics.
Transepithelial Cl^− current measurements were made in Ussing chambers about 2 weeks post-seeding (Itani, 0. A. et al. Human cystic fibrosis airway epithelia have reduced Cl− conductance but not increased Na+ conductance. Proc. Natl. Acad. Sci. USA 108, 10260-10265 (2011)). Briefly, primary cultures were mounted in a modified Ussing chamber (Jim's Instruments, 8 wells per instrument). Transepithelial Cl^− current was measured under short-circuit current conditions. Cultures were incubated overnight with 10 μM forskolin and 100 μM 3-isobutyl-1-methylxanthine (IBMX). After measuring baseline current, the transepithelial current (It) response to sequential apical addition of 100 μM amiloride (Amil), 100 μM 4,4′-diisothiocyanoto-stilbene-2,2′-disulfonic acid (DIDS), 4.8 mM [Cl^−], 10 μM forskolin and 100 μM 3-isobutyl-1-methylxanthine (IBMX), and 100 μM GlyH-101 was measured. Studies were conducted with a Cl^− concentration gradient containing 135 mM NaCl, 1.2 mM MgCl2, 1.2 mM CaCl2, 2.4 mM K2PO4, 0.6 mM KH2PO4, 5 mM dextrose, and 5 mM Hepes (pH 7.4) on the basolateral surface, and gluconate substituted for Cl^− on the apical side. […]

As for “SIN3A DsiRNA: Dicer-substrate siRNA against SIN3A, sense SEQ ID NO: 6, antisense SEQ ID NO: 7 (sense GCGAUACAUGAAUUCAGAUACUACC; antisense GGUAGUAUCUGAAUUCAUGUAUCGCUC; chemistry not given here)”, the “HA-tagged CFTR at the cell surface (ELISA)” value in the data set with HA-tagged wild-type CFTR is “increase”. Also, in the data set with CFTR, the “It (transepithelial current) response to cAMP-dependent stimulation” value was “no change” and the “cAMP-stimulated Gt” value was “increased”.

Turning to “miR-138 mimic: synthetic modified RNA duplex, sense SEQ ID NO: 4, antisense SEQ ID NO: 5, showing miR-138-like activity”, the “HA-tagged CFTR at the cell surface (ELISA)” value in the data set with HA-tagged wild-type CFTR was “increase”. In the data set with CFTR, the “It (transepithelial current) response to cAMP-dependent stimulation” value was “no change” and the “cAMP-stimulated Gt” value is given as “increased”.
